The series deals with NMRI mice. The experiment in a line: Determination of the acute toxicity (NMRI mice, intravenous). The class given is in vivo. The note with it: intravenous on day 0, survival on day 14, which LD not stated. How it is done:
To determine the acute toxicity, NMRI mice are injected intravenously on day 0 with different doses of the test substance, dissolved in 0.5 ml of physiological saline solution. Control groups receive only 0.5 ml of physiological saline solution. 5 mice are used per concentration of the test substance. On day 14, the number of surviving mice is determined and the LD5, LD50 and LD95 are determined therefrom by the Litchfield Wilcoxon method. The toxicity of the compounds described here is summarized in comparison with cisplatin in Table 1.

In the case of “5,5-Bis-(aminomethyl)-2-methyl-2-octadecyl-1,3-dioxane-platinum(II) hydroxide [Compound 57]”, the “Acute toxicity (LD5, LD50 and LD95 by the Litchfield Wilcoxon method) (Table 1, column c)” value was 3.4.

(Values after US4730069A, “Cis-platinum complexes with a pentaerythritol derivative as the ligand, a process for their preparation and a pharmaceutical agent containing these compounds” (Behringwerke Aktiengesellschaft, priority 1984, dated 1988).)
